Data reported in article PMC4352194, “Physicochemical and Biological Properties of Oxovanadium(IV), Cobalt(II) and Nickel(II) Complexes with Oxydiacetate Anions” (Biological Trace Element Research, 2014).

Key:
[1] = Scavenging of superoxide radicals (NBT method); conditions: complex concentration causing 50 % reduction of superoxide ion referred to that of ascorbic acid; NBT assay in DMSO
Method: Nitro blue tetrazolium (NBT, 98 % purity), KO2 (96 % purity) and 18-Crown-6 (99 % purity) were purchased from Sigma-Aldrich. The superoxide scavenging activity of the complexes was determined by using their ability to inhibit the reduction of nitro blue tetrazolium (NBT) by superoxide ions. UV–vis measurements were carried out by using the Perkin-Elmer Lambda 650 spectrophotometer equipped with the temperature control—Peltier system with a scan accuracy of 1 and 1-nm slit width. The measurements were carried out in DMSO solution at 288.15 K according to the method described in the literature. Superoxide free radicals were generated by dissolving 6.5-mg portion of KO2 powder into DMSO (50 mL) together with 90 mg of 18-crown-6-ether. NBT (10 mg) was dissolved directly in DMSO (10 mL). In general, 1.5 mL of DMSO/KO2/18-crown-6 mixture was added to 0.5 mL of the sample to be assayed. The mixture was kept for 20 min and then 0.1 mL of NBT solution was added while stirring. The absorbance was monitored spectrophotometrically at 560 nm. The control test was carried out under the same experimental condition under assumption that KO2 and 18-crown-6 were absent in DMSO.
The ability of the complexes to scavenge superoxide anion radicals was evaluated by the NBT assay. The measurements were carried out in the DMSO solution in which KO2 was dissolved via the use of a crown ether to generate superoxide radicals (see Material and Methods).
The antioxidant activities of the complexes towards O2 ^− were compared to each other. Based on the obtained relationships (Fig. 3), the complex concentrations causing the 50 % reduction of the concentration of the superoxide ion were calculated. The obtained values were referred to the concentration of ascorbic acid causing the same O2 ^− reduction effect measured at the same experimental conditions. In this way, ascorbic acid equivalents of the complexes were obtained. They are equal 0.35, 1.11 and 4.50 for VO(ODA), Ni(ODA) and Co(ODA), respectively.

[2] = Potentiometric titration: stability constants of the complexes; assay type: physicochemical
Method: Potentiometric titrations were performed in a 30-mL thermostated (298.15 ± 0.10 K) cell using the Cerko Lab System microtitration unit fitted with a 5-mL Hamilton’s syringe, a pH combined electrode (Schott–BlueLine 16 pH type) and a self-made measuring cell equipped with a magnetic stirrer. The temperature was controlled using the Lauda E100 circulation thermostat. In aqueous solutions, the electrode was calibrated according to IUPAC recommendations. In binary systems (10–50 % v/v DMSO:H2O), the electrode calibration was performed by the Gran’s method using the GLEE program. For this purpose, the HClO4 solution was titrated with tetrabutylammonium hydroxide (Bu4NOH) solution both at the same mole fraction of organic solvent (10–50 (v/v%) DMSO). The syringe was calibrated by a weight method. The double distilled water of conductivity approximately 0.18 μS/cm was used throughout for the preparation of aqueous solutions. Other reagents used in the experiments were purchased from Sigma-Aldrich. They were as follows: VOSO4 (≥99.99 % trace metals basis), Co(NO3)2·6H2O (ACS reagent, ≥99 %), Ni(NO3)2·6H2O (99.999 %) and 2,2′-oxydiacetic acid (H2ODA, 98 %). All the solutions were prepared immediately before measurements. The compositions of the titrand solutions used in the experiments were as follows: (a) 2 mM Ni^2+ (Co^2+ or VO^2+), 5 mM H2ODA, 5 mM HClO4, (b) 2.5 mM H2ODA (for binary systems). The solutions (Vo = 5.0 mL) were potentiometrically titrated with the standardized 0.098 M NaOH solution or with the standardized 0.025 M Bu4NOH solution (in binary systems) in the pH range from 2.5 to 11.0. The titrant was added to the titrand in increments of 0.01 mL, with a pause of 60 s. Each titration was repeated at least three times in order to check the reproducibility of the data. The stability constants of the complexes were determined using the Hyperquad2008 program. The concentration distribution of various complex species existing in the solution as a function of pH was obtained using the HySS program.
The equilibrium constants defined by Eqs. (1) and (2):1 pM+qL+rH=MpLqHr 2 βpqr=MpLqHr/M^pL^qH^r (where M is VO^2+, Co^2+ or Ni^2+, L denotes the oxydiacetate ion, H is the proton and p, q, r are stoichiometric coefficients for the reaction) were refined by least-squares calculations using the Hyperquad2008 (version 5.2.19) computer program. For the oxovanadium(IV) system, the formation of the hydroxo complexes of VO(IV) were taken into account in the calculations of the stability constants. The following formation constants were taken from the literature and were fixed: logβ 10–1 = −5.94, logβ 20–2 = −6.95 and logβ 10–3 = −18. The equilibrium models presented in Table 2 have given the best fitting of the calculated data to the experimental ones.

Enterococcus faecalis = assay: Broth dilution test (MIC, MBC); assay type: cell-based; conditions: E. faecalis; for MIC: broth dilution 1–2048 μg/mL
Method: (§1) The antimicrobial activity of complex compounds was assessed against Bacillus subtilis, Escherichia coli, Enterococcus faecalis, Pseudomonas aeruginosa, Staphylococcus aureus, Staphylococcus epidermidis (all strains were from the collection of the Department of Molecular Biology, University of Gdańsk). All bacteria were cultured in the Luria-Bertani (LB) broth at 310.15 K in the air with shaking. LB agar plates were prepared by the supplementation of LB broth with the 1.5 % bacteriological agar. Stock solutions of complex compounds were freshly prepared in the LB broth at the concentration of 25 mg/mL. The antimicrobial activity was assessed with the broth dilution method. The LB broth supplemented with the twofold diluted amount of tested compounds (dilution range 1–2048 μg/mL) was inoculated with 10^6 cfu of bacteria cells per well of 96-well plate. Cultures were incubated at 310.15 K with shaking for 18–20 h in the air, and the bacterial growth was estimated by measuring the optical density at 600 nm with the LB broth as a background control. A minimum inhibitory concentration (MIC) was defined as the lowest concentration of the tested compound (in μg/mL) at which there was no visible growth of bacteria compared to the growth observed for the inoculated LB broth without any supplementation. […] The concentration (in μg/mL) at which no colonies were observed was defined as MBC.

Staphylococcus aureus = assay: Broth dilution test (MIC, MBC); assay type: cell-based; conditions: S. aureus; for MIC: broth dilution 1–2048 μg/mL
Method: as §1

[3] = system: Staphylococcus epidermidis; assay: Broth dilution test (MIC, MBC); assay type: cell-based; conditions: S. epidermidis; for MIC: broth dilution 1–2048 μg/mL
Method: as §1

Pseudomonas aeruginosa = assay: Broth dilution test (MIC, MBC); assay type: cell-based; conditions: P. aeruginosa, broth dilution 1–2048 μg/mL
Method: as §1

Escherichia coli = assay: Broth dilution test (MIC, MBC); assay type: cell-based; conditions: E. coli; for MIC: broth dilution 1–2048 μg/mL
Method: as §1

[4] = PT, 298.15 K, aqueous, hydroxo species

| Structure (SMILES) | ascorbic acid equivalents [1] | logβ 110 (species ML), stability constant ([2]; PT, 298.15 K, aqueous) | logβ 11–2 (species MLH−2) [2, 4] | MIC (Enterococcus faecalis) [µg/mL] | MBC (Staphylococcus aureus) [µg/mL] | bacteriostatic or bactericidal activity (Staphylococcus aureus) | MIC (Staphylococcus aureus) [µg/mL] | MBC [3] [µg/mL] | bacteriostatic or bactericidal activity [3] | MIC [3] [µg/mL] | MIC (Pseudomonas aeruginosa) [µg/mL] | MBC (Escherichia coli) [µg/mL] | bacteriostatic or bactericidal activity (Escherichia coli) | MIC (Escherichia coli) [µg/mL] | logβ 22–2 (species M2L2H−2) [2, 4] | pH at which hydroxo species predominate over the complex ([2]; species distribution M:L = 1:1 calculated from stability constants) | MBC (Enterococcus faecalis) [µg/mL] | bacteriostatic or bactericidal activity (Enterococcus faecalis) |
| --- | --- | --- | --- | --- | --- | --- | --- | --- | --- | --- | --- | --- | --- | --- | --- | --- | --- | --- |
| O.O.O.O=C(O)COCC(=O)O.[Co] [Co(ODA), [Co(ODA)(H2O)2]·H2O] | 4.50 | 3.45 (±0.11) | −14.88 (±0.14) | 256 | 512 | bactericidal activity | 256 | 2048 | bactericidal activity | 256 | 256 | 1024 | bactericidal activity | 512 | – | – | – | – |
| O.O.O.O.O.O.O.O.O.O=C([O-])COCC(=O)[O-].O=C([O-])COCC(=O)[O-].[Ni+2].[Ni+2] [Ni(ODA), [Ni(ODA)(H2O)3]·1.5H2O] | 1.11 | 3.52 (±0.02) | −14.17 (±0.06) | 1024 | – | – | 1024 | 2048 | bactericidal activity | 512 | 1024 | – | – | 1024 | – | – | – | – |
| O.O.O=C([O-])COCC(=O)[O-].[O]=[V+2] [VO(ODA), [VO(ODA)(H2O)2]] | 0.35 | 5.08 (±0.04) | −6.45 (±0.04) | 1024 | 2048 | bactericidal activity | 1024 | 2048 | bactericidal activity | 2048 | 1024 | – | – | 2048 | 1.65 (±0.15) | > 5.5 | 1024 | bactericidal activity |
